Laboratory results published in ChEMBL document CHEMBL5058564, “EUbOPEN Chemogenomics Library 2 (Incucyte)” (2022).

Columns and labels:
Format in all cases: toxicity, cell-based
U2OS = assay: Incucyte cell viability with U2OS; details: human, 10 µM, compound concentration 10 uM
HEK-293T = assay: Incucyte cell viability with HEK293T; details: human, 10 µM, compound concentration 10 uM
Fibroblast = assay: Incucyte cell viability with human fibroblast; details: 10 µM, compound concentration 10 uM
[1] = 0 h, replicate number 2, timepoint 0 hours
[2] = 6 h, replicate number 1, timepoint 6 hours
[3] = 18 h, replicate number 2, timepoint 18 hours
[4] = 24 h, replicate number 1, timepoint 24 hours
[5] = 24 h, replicate number 2, timepoint 24 hours
[6] = 6 h, replicate number 2, timepoint 6 hours
[7] = 12 h, replicate number 1, timepoint 12 hours
[8] = 12 h, replicate number 2, timepoint 12 hours
[9] = 18 h, replicate number 1, timepoint 18 hours
[10] = 0 h, replicate number 1, timepoint 0 hours
Note: unitless GR value; below 1 slowed growth and below 0 cell loss.

| SMILES | Growth Rate (U2OS; [1]) | Growth Rate (U2OS; [2]) | Growth Rate (U2OS; [3]) | Growth Rate (U2OS; [4]) | Growth Rate (U2OS; [5]) | Growth Rate (HEK-293T; [2]) | Growth Rate (HEK-293T; [7]) | Growth Rate (HEK-293T; [9]) | Growth Rate (HEK-293T; [4]) | Growth Rate (Fibroblast; [1]) | Growth Rate (Fibroblast; [2]) | Growth Rate (Fibroblast; [6]) | Growth Rate (Fibroblast; [7]) | Growth Rate (Fibroblast; [8]) | Growth Rate (Fibroblast; [9]) | Growth Rate (Fibroblast; [4]) | Growth Rate (U2OS; [6]) | Growth Rate (U2OS; [8]) | Growth Rate (HEK-293T; [1]) | Growth Rate (Fibroblast; [10]) | also measured |
| --- | --- | --- | --- | --- | --- | --- | --- | --- | --- | --- | --- | --- | --- | --- | --- | --- | --- | --- | --- | --- | --- |
| O=C(N[C@@H]1CC[C@@H](c2cccc(F)c2F)CN(CC(F)(F)F)C1=O)N1CCC(n2c(=O)[nH]c3ncccc32)CC1 [TELCAGEPANT] | -1 | 0.8 | 0.98 | 0.86 | 0.95 | 0.32 | 0.66 | 0.54 | 0.81 | 0.95 | 0.18 | -0.28 | 0.01 | 0.39 | 0.11 | 0.22 |  |  |  |  | Growth Rate (HEK-293T; [6]): 0.77; Growth Rate (HEK-293T; [8]): 0.94; Growth Rate (HEK-293T; [3]): 0.98; Growth Rate (Fibroblast; [3]): 0.66; Growth Rate (Fibroblast; [5]): 0.72 |
| O=C(Nc1cc(-c2ccccc2)nn1-c1ccccc1F)c1ccc([N+](=O)[O-])cc1 |  |  | 0.9 |  | 0.95 |  |  |  |  |  | -0.14 | 0.55 | 0.25 |  | 0.09 | -0.11 | 0.54 | 0.84 | 0.17 |  | Growth Rate (HEK-293T; [10]): 0.97; Growth Rate (Fibroblast; [3]): 0.95 |
| CC[C@H](NC(=O)c1c(C)c(-c2ccccc2)nc2ccccc12)c1ccccc1 [SB-222200] | -1 |  | 0.84 |  | 0.93 | 0.76 | 0.77 | 0.97 | 0.88 |  | 0.45 | -0.34 | 0.45 | 0.48 | 0.64 | 0.67 |  | 0.93 |  |  | Growth Rate (HEK-293T; [6]): 0.41; Growth Rate (HEK-293T; [8]): 0.72; Growth Rate (Fibroblast; [3]): 0.91; Growth Rate (Fibroblast; [5]): 0.98 |
| Nc1nccc(-c2ccn3c(N)nccc23)n1 | 0.39 |  | 0.85 | 0.98 | 0.82 |  |  | 0.93 | 0.76 | -0.24 |  |  |  | 0.84 |  |  | 0.89 | 0.92 | 0.28 | -0.59 | Growth Rate (U2OS; [10]): 0.63; Growth Rate (HEK-293T; [10]): -0.7; Growth Rate (HEK-293T; [5]): 1; Growth Rate (Fibroblast; [3]): 0.76; Growth Rate (Fibroblast; [5]): 0.72 |
| COC(c1ccccc1)(c1ccccc1)[C@H](Oc1nc(C)cc(C)n1)C(=O)O [AMBRISENTAN] | -1 |  | 0.96 |  |  |  | 0.96 | 0.99 | 0.97 | 0.74 | 0.41 | 0.53 | 0.97 | 0.6 |  |  |  |  | 0.79 |  | Growth Rate (U2OS; [10]): -0.03 |
| CN1CCC(c2c[nH]c3ccc(O)cc23)CC1 | 0.6 |  |  |  |  |  |  | 0.98 |  | -0.25 | 0.11 |  |  |  |  |  |  |  | 0.25 | 0.18 | Growth Rate (U2OS; [10]): 0.81; Growth Rate (U2OS; [7]): 0.97; Growth Rate (HEK-293T; [8]): 0.98; Growth Rate (HEK-293T; [3]): 0.89; Growth Rate (HEK-293T; [5]): 0.89 |
| CC(C)COc1ccc(CNC(=O)N(Cc2ccc(F)cc2)C2CCN(C)CC2)cc1 [PIMAVANSERIN] |  | 0.56 | 0.26 | 0.5 | 0.24 | -0.67 | -0.29 | -0.21 | -0.29 |  | 0.97 | -0.26 | 0.37 | -0.05 | 0.14 | 0.27 | 0.04 | 0.31 |  |  | Growth Rate (U2OS; [7]): 0.62; Growth Rate (U2OS; [9]): 0.57; Growth Rate (HEK-293T; [6]): 0.4; Growth Rate (HEK-293T; [8]): 0.31; Growth Rate (HEK-293T; [3]): 0.1; Growth Rate (HEK-293T; [5]): -0.01; Growth Rate (Fibroblast; [5]): 0.26 |
| C[C@H]1[C@H]2CC[C@H]3[C@@H]4CC=C5C[C@@H](N(C)C)CC[C@]5(C)[C@H]4CC[C@]23CN1C [CONESSINE] |  |  |  |  |  | 0.67 | 0.85 | 0.82 | 0.91 | 0.49 | 0.11 |  | 0.18 |  | 0.35 | 0.52 | 0.8 | 0.89 | 0.74 |  |  |
| CC(C)NCC(O)COc1cccc2[nH]ccc12 (stereo not drawn) [PINDOLOL] | 0.98 | 0.52 |  | 0.7 |  | 0.7 |  | 0.97 | 0.82 | -0.46 |  |  | 0.78 |  | 0.94 | 0.9 |  |  | -0.05 | 0.32 | Growth Rate (U2OS; [10]): -0.36; Growth Rate (U2OS; [7]): 0.93; Growth Rate (U2OS; [9]): 0.88; Growth Rate (HEK-293T; [3]): 0.94; Growth Rate (HEK-293T; [5]): 0.98 |
| Cc1ccc(/C(=C\CN2CCCC2)c2ccccn2)cc1 [TRIPROLIDINE] |  | -0.54 | 0.96 | 0.83 | 0.94 |  |  |  |  | 0.74 | 0.96 |  |  |  | 0.98 | 0.88 | 0.77 | 0.88 |  | 0.54 | Growth Rate (U2OS; [7]): 0.38; Growth Rate (U2OS; [9]): 0.76; Growth Rate (HEK-293T; [6]): 0.8 |
| O=C1[C@H](Cc2ccc(O)cc2)N2C(=O)CCN(C(=O)NCc3ccccc3)[C@H]2CN1Cc1cccc2ccccc12 | 0.18 | 0.4 | 0.51 | 0.3 | 0.57 | -0.42 | -0.35 | -0.29 | -0.24 | 0.82 | -0.77 | 0.03 | -0.6 | -0.16 | -0.71 | -0.54 | 0.87 | 0.6 | 0.37 | 0.78 | Growth Rate (U2OS; [10]): -0.65; Growth Rate (U2OS; [7]): 0.14; Growth Rate (U2OS; [9]): 0.11; Growth Rate (HEK-293T; [10]): 0.98; Growth Rate (HEK-293T; [6]): -0.2; Growth Rate (HEK-293T; [8]): -0.29; Growth Rate (HEK-293T; [3]): -0.22; Growth Rate (HEK-293T; [5]): -0.21; Growth Rate (Fibroblast; [3]): -0.07; Growth Rate (Fibroblast; [5]): -0.02 |
| O=C(NCc1ccc(F)cc1)N1CCN2C(=O)OC(c3ccccc3)(c3ccccc3)C2C1 (stereo not drawn) |  | 0.37 | 0.99 |  | 0.97 | 0.88 |  | 1 | 0.92 | 0.83 |  | 0.42 |  |  |  | 0.67 | 0.99 |  |  | -0.48 |  |
